According to paper PMC6814258 (Pharmaceutical research, 2019):
Where a name gives a salt, the structure may show the parent alone.

Key:
Assay type in all cases: cell-based
[1] = target: human KV7.1 (Homo sapiens, UniProt P51787); assay: KV7.1 86Rb+ efflux HTS; conditions: for inhibition at 10 µM: CHO, read-out: Average percent inhibition at 10 μM (KCNQ1)
[2] = target: T1, Nav1.8 (Homo sapiens, UniProt Q9Y5Y9); assay: Nav1.8 FLIPR HTS; conditions: HEK293, read-out: Average percent inhibition at 10 μM (Nav1.8)
T1 sequence (Q9Y5Y9 whole entry): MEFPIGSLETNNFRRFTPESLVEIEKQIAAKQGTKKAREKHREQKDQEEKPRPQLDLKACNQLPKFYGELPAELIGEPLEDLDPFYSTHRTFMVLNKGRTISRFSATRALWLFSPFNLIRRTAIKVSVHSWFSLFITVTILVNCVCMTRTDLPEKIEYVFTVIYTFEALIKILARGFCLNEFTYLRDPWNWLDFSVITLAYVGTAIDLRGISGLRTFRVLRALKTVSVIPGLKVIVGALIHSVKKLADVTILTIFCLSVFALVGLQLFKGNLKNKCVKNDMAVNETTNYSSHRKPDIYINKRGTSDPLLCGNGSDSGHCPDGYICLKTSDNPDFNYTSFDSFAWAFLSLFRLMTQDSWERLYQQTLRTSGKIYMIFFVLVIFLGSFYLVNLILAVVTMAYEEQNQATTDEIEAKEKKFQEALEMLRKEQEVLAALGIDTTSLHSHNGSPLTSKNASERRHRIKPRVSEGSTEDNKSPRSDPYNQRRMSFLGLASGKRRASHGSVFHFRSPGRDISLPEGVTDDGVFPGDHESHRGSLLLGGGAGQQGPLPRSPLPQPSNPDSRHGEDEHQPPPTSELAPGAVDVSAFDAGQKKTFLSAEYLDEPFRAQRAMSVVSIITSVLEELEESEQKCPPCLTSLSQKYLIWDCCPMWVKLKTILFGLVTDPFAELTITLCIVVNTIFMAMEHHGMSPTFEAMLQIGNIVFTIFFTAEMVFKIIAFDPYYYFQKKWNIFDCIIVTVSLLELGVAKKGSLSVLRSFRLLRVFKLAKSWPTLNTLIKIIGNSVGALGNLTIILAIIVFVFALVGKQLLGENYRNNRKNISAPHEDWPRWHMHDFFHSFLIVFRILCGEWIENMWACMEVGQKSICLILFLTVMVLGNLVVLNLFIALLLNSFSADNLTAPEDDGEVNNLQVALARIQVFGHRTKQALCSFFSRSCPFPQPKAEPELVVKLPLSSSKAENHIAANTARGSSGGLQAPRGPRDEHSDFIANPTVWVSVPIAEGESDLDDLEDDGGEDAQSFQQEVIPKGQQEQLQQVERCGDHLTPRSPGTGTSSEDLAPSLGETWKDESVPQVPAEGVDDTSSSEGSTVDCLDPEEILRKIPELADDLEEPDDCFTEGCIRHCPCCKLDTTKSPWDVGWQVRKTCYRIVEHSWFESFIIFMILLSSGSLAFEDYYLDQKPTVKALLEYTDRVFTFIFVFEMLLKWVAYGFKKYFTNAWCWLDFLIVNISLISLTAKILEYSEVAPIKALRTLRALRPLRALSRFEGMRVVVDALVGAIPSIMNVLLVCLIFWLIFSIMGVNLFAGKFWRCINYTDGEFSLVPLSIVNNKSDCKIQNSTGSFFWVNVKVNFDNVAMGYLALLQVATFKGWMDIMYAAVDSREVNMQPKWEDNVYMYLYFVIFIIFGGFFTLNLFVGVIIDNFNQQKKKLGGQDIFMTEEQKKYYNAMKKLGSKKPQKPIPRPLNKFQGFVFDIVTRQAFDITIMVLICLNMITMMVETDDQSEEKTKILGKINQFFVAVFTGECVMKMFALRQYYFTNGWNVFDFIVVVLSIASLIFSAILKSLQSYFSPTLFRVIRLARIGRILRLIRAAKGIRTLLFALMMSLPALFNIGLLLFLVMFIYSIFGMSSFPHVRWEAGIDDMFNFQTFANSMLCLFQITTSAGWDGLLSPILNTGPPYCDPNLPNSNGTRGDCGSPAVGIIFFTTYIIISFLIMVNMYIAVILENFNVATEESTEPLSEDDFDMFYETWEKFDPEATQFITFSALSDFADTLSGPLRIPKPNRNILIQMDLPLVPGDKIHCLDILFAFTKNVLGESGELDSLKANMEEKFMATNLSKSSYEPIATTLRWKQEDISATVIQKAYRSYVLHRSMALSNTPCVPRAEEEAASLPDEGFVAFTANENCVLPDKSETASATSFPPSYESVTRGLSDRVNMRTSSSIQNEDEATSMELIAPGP

[3] = target: T1, Nav1.8; assay: Nav1.8 automated patch clamp

Chain of human KV7.1 (P51787 whole entry): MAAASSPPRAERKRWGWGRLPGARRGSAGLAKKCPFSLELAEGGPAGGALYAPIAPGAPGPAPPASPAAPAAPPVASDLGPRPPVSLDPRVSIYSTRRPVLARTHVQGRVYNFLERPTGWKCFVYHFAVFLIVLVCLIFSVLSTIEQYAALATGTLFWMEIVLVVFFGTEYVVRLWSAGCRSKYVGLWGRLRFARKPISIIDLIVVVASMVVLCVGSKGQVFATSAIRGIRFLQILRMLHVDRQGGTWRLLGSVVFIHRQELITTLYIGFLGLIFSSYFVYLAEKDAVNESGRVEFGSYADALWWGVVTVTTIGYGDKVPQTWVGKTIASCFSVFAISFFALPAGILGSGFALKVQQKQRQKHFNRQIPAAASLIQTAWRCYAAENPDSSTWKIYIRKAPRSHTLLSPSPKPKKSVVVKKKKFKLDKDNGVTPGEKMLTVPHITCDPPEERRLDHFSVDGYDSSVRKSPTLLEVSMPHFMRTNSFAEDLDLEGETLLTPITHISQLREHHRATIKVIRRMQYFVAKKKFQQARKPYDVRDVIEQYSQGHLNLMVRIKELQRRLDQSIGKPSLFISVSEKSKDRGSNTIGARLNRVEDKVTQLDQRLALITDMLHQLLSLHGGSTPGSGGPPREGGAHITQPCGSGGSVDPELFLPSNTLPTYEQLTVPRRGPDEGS

COC(=O)C1=C(C)NC(C)=C(C(=O)OC2CCCN(Cc3ccccc3)C2)C1c1cccc([N+](=O)[O-])c1 (stereo not drawn) [Benidipine hydrochloride]
inhibition at 10 µM [1]: 51.1% | inhibition at 10 µM [2]: 113% | IC50 [3]: 4400 nM

CC/C(=C(/CC)c1ccc(O)cc1)c1ccc(O)cc1 [Diethylstilbestrol]
inhibition at 10 µM [1]: 90.2% | inhibition at 10 µM [2]: 99.5%

CC[C@H](c1ccc(O)cc1)[C@@H](CC)c1ccc(O)cc1 [Hexestrol]
inhibition at 10 µM [1]: 82% | inhibition at 10 µM [2]: 91.6%

COC(=O)C1=C(C)NC(C)=C(C(=O)OCCN(C)Cc2ccccc2)C1c1cccc([N+](=O)[O-])c1 (stereo not drawn) [Nicardipine hydrochloride]
inhibition at 10 µM [1]: 50.7% | inhibition at 10 µM [2]: 123% | IC50 [3]: 600 nM

COC(=O)C1=C(C#N)NC(C)=C(C(=O)OC(C)C)C1c1cccc([N+](=O)[O-])c1 (stereo not drawn) [Nilvadipine]
inhibition at 10 µM [2]: 87.9% | IC50 [3]: 600 nM

COCCOC(=O)C1=C(C)NC(C)=C(C(=O)OC(C)C)C1c1cccc([N+](=O)[O-])c1 (stereo not drawn) [Nimodipine]
inhibition at 10 µM [2]: 96.1% | IC50 [3]: 1200 nM

c1ccc2c(c1)Nc1ccccc1S2 [Phenothiazine]
inhibition at 10 µM [1]: 59.8%

CCN1CCN(C(=O)N[C@@H](C(=O)N[C@@H]2C(=O)N3[C@@H]2SC(C)(C)[C@@H]3C(=O)O)c2ccccc2)C(=O)C1=O [Piperacillin sodium salt]
inhibition at 10 µM [1]: 43.5%

CC(=O)SCC(Cc1ccccc1)C(=O)NCC(=O)OCc1ccccc1 (stereo not drawn) [Racecadotril]
inhibition at 10 µM [1]: 46.4% | inhibition at 10 µM [2]: 94.8%

O=C(c1ccc(OCCN2CCCCC2)cc1)c1c(-c2ccc(O)cc2)sc2cc(O)ccc12 [Raloxifene hydrochloride]
inhibition at 10 µM [1]: 43.3% | inhibition at 10 µM [2]: 88.4%

Clc1ccc(C(Cn2ccnc2)OCc2csc3c(Cl)cccc23)c(Cl)c1 (stereo not drawn) [Sertaconazole nitrate]
inhibition at 10 µM [1]: 58.6%

C[C@]12Cc3c[nH]nc3C[C@@H]1CC[C@@H]1[C@@H]2CC[C@@]2(C)[C@H]1CC[C@]2(C)O [Stanozolol]
inhibition at 10 µM [1]: 43.6%

CCSc1ccc2c(c1)N(CCCN1CCN(C)CC1)c1ccccc1S2.O=C(O)CC(O)C(=O)O.O=C(O)CC(O)C(=O)O [Thiethylperazine dimalate]
Average percent inhibition at 10 μM (KCNQ1) ([1]; 10 μM, n=2, CHO cells, 86Rb+ efflux, normalized to 10 μM chromanol 293B control): 56.9%

C#C[C@]1(O)CC[C@H]2[C@@H]3[C@H](C)CC4=C(CCC(=O)C4)[C@H]3CC[C@@]21C [Tibolone]
inhibition at 10 µM [1]: 87.6%

Clc1ccc(C(Cn2ccnc2)OCc2ccsc2Cl)c(Cl)c1 (stereo not drawn) [Tioconazole]
inhibition at 10 µM [1]: 53.5%

Cc1cccc(N(C)C(=S)Oc2ccc3ccccc3c2)c1 [Tolnaftate]
inhibition at 10 µM [1]: 69.4%

CC1(C)O[C@@H]2[C@@H](CO[C@@]3(COS(N)(=O)=O)OC(C)(C)O[C@@H]23)O1 [Topiramate]
inhibition at 10 µM [1]: 44.3%

CCOC1O[C@H]([C@@H](COCc2ccccc2)OCc2ccccc2)[C@H](OCc2ccccc2)[C@H]1O (stereo partly drawn) [Tribenoside]
inhibition at 10 µM [1]: 48.8% | inhibition at 10 µM [2]: 86.2%

CSc1nc2cc(Cl)c(Oc3cccc(Cl)c3Cl)cc2[nH]1 [Triclabendazole]
inhibition at 10 µM [1]: 76%

Oc1cc(Cl)ccc1Oc1ccc(Cl)cc1Cl [Triclosan]
inhibition at 10 µM [1]: 74% | inhibition at 10 µM [2]: 87.8%

Cc1c(C)c2c(c(C)c1O)CCC(C)(COc1ccc(CC3SC(=O)NC3=O)cc1)O2 (stereo not drawn) [Troglitazone]
inhibition at 10 µM [1]: 73%
